Values joined by “and” are separate entries in the source; they are usually repeats but may differ in a detail not shown here. Equal values may be shown once.
How the values were obtained:
plasma proteins = experiment: Fraction bound to plasma proteins, rabbit; type: in vitro ADME
[1] = system: rabbits subjected to anterior cruciate ligament transection (ACLT); experiment: Rabbit ACLT study, modified Mankin scoring; type: in vivo
Description: The femora and tibias were decalcified, embedded in paraffin, sectioned at 5-7 µm at two different levels separated by approximately 2 mm, and stained with safranin O and toluidine blue.
Both tibial plateaus and femoral condyles were subjected to semi-quantitative scoring using a modified Mankin scoring system. Slides were evaluated in animal ID order, i.e. in random order with respect to treatment, so that the reader was effectively blinded to treatment assignment.
Analysis was performed on the tibial plateaus and femoral condyles at two levels (Level 1 and 2) for each:
Group 1) sham + vehicle; Group 2) ACLT + vehicle; Group 3) ACLT + MIV-711, 30 µmol/kg (low dose) and Group 4) ACLT + MIV-711, 100 µmol/kg (high dose).

[2] = system: dogs subjected to partial medial meniscectomy; experiment: Dog partial medial meniscectomy study, collagen damage width; type: in vivo
Text: Collagen damage across the medial tibial plateau (most severely affected section) was quantified by measuring the total width of the following:
Any damage (fibrillation ranging from superficial to full thickness loss)
Severe damage (total or near total loss of collagen to tidemark, >90% thickness)
Marked damage (extends through 61-90% of the cartilage thickness)
Moderate damage (extends thru 31-60% of the cartilage thickness)
Mild damage (extends through 11-30% of the cartilage thickness)
Minimal damage (very superficial, affecting upper 10% only)
Single clefts were arbitrarily given a measure of 100 µm and the number of clefts was multiplied by 100 if several are present.

[3] = system: dogs subjected to partial medial meniscectomy; experiment: Dog partial medial meniscectomy study, cartilage area image analysis; type: in vivo
Description: In order to quantitate and compare the cartilage matrix preservation, cartilage area measurements were taken from the most severely affected section of each animal. In this section, the most severely affected area - generally zone 2 - is analyzed at 25x magnification. Photomicrographs were taken with a digital microscope camera, and analyzed with appropriate software. The following measurements were taken:
Total area from the tidemark to the surface (or projected surface in degenerated areas), extending from the axial to abaxial aspects of the medial tibial plateau zones in the most severely affected area (generally zone 2)
Area of non-viable matrix (cartilage with less than 50% chondrocytes, proteoglycan, and intact collagen) and no matrix within the total area of zone 2 or most severely affected area in the photomicrograph
Area of no matrix within the total area being analyzed
The area of non-viable matrix in zone under analysis was subtracted from the total area in the photomicrograph to get the area of viable matrix in this area, and the area of no matrix was subtracted from the total area to get the area of any matrix (collagen matrix with or without chondrocytes and proteoglycan). These two values were then compared back to the total area to derive the % viable area and the % any matrix in this area of greatest lesion severity, which were compared between groups.

[4] = Group 3: ACLT + MIV-711, 30 µmol/kg (low dose)
[5] = Group 4: ACLT + MIV-711, 100 µmol/kg (high dose)
[6] = individual animals of MIV-711 group
[7] = individual animals of MIV-711 group, per section level (first line of animal, L2, L3)

C#C[C@@H]1CN(C(=O)[C@H](CC(C)C)NC(=O)c2ccc(-c3nc(N4CCN(C)CC4)sc3F)cc2)[C@@H]2C(=O)CO[C@H]12 [MIV-711]
fraction bound to plasma proteins (plasma proteins): 92% | effect on Mankin scores ([1]; ACLT rabbits, 30 and 100 µmol/kg): did not affect | Total Mankin score Level 1+2_FC, mean [1, 4]: 58.86 | Total Mankin score Level 1+2_FC, median [1, 4]: 58.00 | Total Mankin score Level 1+2_LFC, mean [1, 4]: 21.14 | Total Mankin score Level 1+2_LFC, median [1, 4]: 17.00 | Total Mankin score Level 1+2_LTP, mean [1, 4]: 9.71 | Total Mankin score Level 1+2_LTP, median [1, 4]: 10.00 | Total Mankin score Level 1+2_MFC, mean [1, 4]: 37.71 | Total Mankin score Level 1+2_MFC, median [1, 4]: 43.00 | Total Mankin score Level 1+2_MTP, mean [1, 4]: 16.71 | Total Mankin score Level 1+2_MTP, median [1, 4]: 16.00 | Total Mankin score Level 1+2_TP, mean [1, 4]: 26.43 | Total Mankin score Level 1+2_TP, median [1, 4]: 26.00 | Total Mankin score Level 1_FC, mean [1, 4]: 32.14 | Total Mankin score Level 1_FC, median [1, 4]: 32.00 | Total Mankin score Level 1_LFC, mean [1, 4]: 12.00 | Total Mankin score Level 1_LFC, median [1, 4]: 10.00 | Total Mankin score Level 1_LTP, mean [1, 4]: 5.57 | Total Mankin score Level 1_LTP, median [1, 4]: 4.00 | Total Mankin score Level 1_MFC, mean [1, 4]: 20.14 | Total Mankin score Level 1_MFC, median [1, 4]: 23.00 | Total Mankin score Level 1_MTP, mean [1, 4]: 9.86 | Total Mankin score Level 1_MTP, median [1, 4]: 9.00 | Total Mankin score Level 1_TP, mean [1, 4]: 15.43 | Total Mankin score Level 1_TP, median [1, 4]: 16.00 | Total Mankin score Level 2_FC, mean [1, 4]: 26.71 | Total Mankin score Level 2_FC, median [1, 4]: 26.00 | Total Mankin score Level 2_LFC, mean [1, 4]: 9.14 | Total Mankin score Level 2_LFC, median [1, 4]: 7.00 | Total Mankin score Level 2_LTP, mean [1, 4]: 4.14 | Total Mankin score Level 2_LTP, median [1, 4]: 4.00 | Total Mankin score Level 2_MFC, mean [1, 4]: 17.57 | Total Mankin score Level 2_MFC, median [1, 4]: 20.00 | Total Mankin score Level 2_MTP, mean [1, 4]: 6.86 | Total Mankin score Level 2_MTP, median [1, 4]: 6.00 | Total Mankin score Level 2_TP, mean [1, 4]: 11.00 | Total Mankin score Level 2_TP, median [1, 4]: 12.00 | Total Mankin score Level 1+2_FC, mean [1, 5]: 49.71 | Total Mankin score Level 1+2_FC, median [1, 5]: 51.00 | Total Mankin score Level 1+2_LFC, mean [1, 5]: 21.14 | Total Mankin score Level 1+2_LFC, median [1, 5]: 21.00 | Total Mankin score Level 1+2_LTP, mean [1, 5]: 12.71 | Total Mankin score Level 1+2_LTP, median [1, 5]: 12.00 | Total Mankin score Level 1+2_MFC, mean [1, 5]: 28.57 | Total Mankin score Level 1+2_MFC, median [1, 5]: 27.00 | Total Mankin score Level 1+2_MTP, mean [1, 5]: 17.43 | Total Mankin score Level 1+2_MTP, median [1, 5]: 14.00 | Total Mankin score Level 1+2_TP, mean [1, 5]: 30.14 | Total Mankin score Level 1+2_TP, median [1, 5]: 27.00 | Total Mankin score Level 1_FC, mean [1, 5]: 25.43 | Total Mankin score Level 1_FC, median [1, 5]: 29.00 | Total Mankin score Level 1_LFC, mean [1, 5]: 10.57 | Total Mankin score Level 1_LFC, median [1, 5]: 10.00 | Total Mankin score Level 1_LTP, mean [1, 5]: 6.29 | Total Mankin score Level 1_LTP, median [1, 5]: 7.00 | Total Mankin score Level 1_MFC, mean [1, 5]: 14.86 | Total Mankin score Level 1_MFC, median [1, 5]: 15.00 | Total Mankin score Level 1_MTP, mean [1, 5]: 9.29 | Total Mankin score Level 1_MTP, median [1, 5]: 8.00 | Total Mankin score Level 1_TP, mean [1, 5]: 15.57 | Total Mankin score Level 1_TP, median [1, 5]: 16.00 | Total Mankin score Level 2_FC, mean [1, 5]: 24.29 | Total Mankin score Level 2_FC, median [1, 5]: 23.00 | Total Mankin score Level 2_LFC, mean [1, 5]: 10.57 | Total Mankin score Level 2_LFC, median [1, 5]: 10.00 | Total Mankin score Level 2_LTP, mean [1, 5]: 6.43 | Total Mankin score Level 2_LTP, median [1, 5]: 6.00 | Total Mankin score Level 2_MFC, mean [1, 5]: 13.71 | Total Mankin score Level 2_MFC, median [1, 5]: 13.00 | Total Mankin score Level 2_MTP, mean [1, 5]: 8.14 | Total Mankin score Level 2_MTP, median [1, 5]: 7.00 | Total Mankin score Level 2_TP, mean [1, 5]: 14.57 | Total Mankin score Level 2_TP, median [1, 5]: 14.00 | collagen degeneration, percentage of total width: Mild ([2]; group Mean): 17% | collagen degeneration, percentage of total width: Mild+ Minimal ([2]; group Mean): 28% | collagen degeneration, percentage of total width: Minimal ([2]; group Mean): 11% | collagen degeneration, percentage of total width: Moderate+ Mild+ Minimal ([2]; group Mean): 30% | collagen degeneration, percentage of total width: Normal ([2]; group Mean): 70% | collagen degeneration, percentage of total width: Severe ([2]; group Mean): 0% | collagen degeneration, percentage of total width: Severe+ Marked ([2]; group Mean): 0% | collagen degeneration, percentage of total width: Severe+ Marked+ Moderate ([2]; group Mean): 2% | collagen degeneration, percentage of total width: Severe+ Marked+ Moderate+ Mild ([2]; group Mean): 19% | collagen degeneration, percentage of total width: Total ([2]; group Mean): 30% | collagen degeneration, percentage of total width: Mild [2, 6]: 10% and 26% and 11% and 4% and 31% and 27% and 13% and 25% and 30% and 14% and 8% and 16% | collagen degeneration, percentage of total width: Mild+ Minimal [2, 6]: 18% and 31% and 23% and 14% and 35% and 39% and 20% and 24% and 34% and 58% and 25% and 16% and 28% and 30% | collagen degeneration, percentage of total width: Minimal [2, 6]: 9% and 5% and 12% and 10% and 4% and 7% and 8% and 27% and 2% and 20% and 14% | collagen degeneration, percentage of total width: Moderate+ Mild+ Minimal [2, 6]: 19% and 31% and 23% and 24% and 35% and 39% and 27% and 34% and 58% and 29% and 18% and 28% and 26% and 30% | collagen degeneration, percentage of total width: Normal [2, 6]: 81% and 69% and 77% and 76% and 65% and 61% and 73% and 62% and 42% and 71% and 82% and 72% and 74% and 70% | collagen degeneration, percentage of total width: Severe [2, 6]: 0% | collagen degeneration, percentage of total width: Severe+ Marked [2, 6]: 0% | collagen degeneration, percentage of total width: Severe+ Marked+ Moderate [2, 6]: 1% and 0% and 10% and 7% and 4% and 2% and 3% | collagen degeneration, percentage of total width: Severe+ Marked+ Moderate+ Mild [2, 6]: 11% and 26% and 14% and 31% and 27% and 20% and 13% and 25% and 30% and 17% and 16% and 8% and 19% | collagen degeneration, percentage of total width: Total [2, 6]: 19% and 31% and 23% and 24% and 35% and 39% and 27% and 38% and 58% and 29% and 18% and 28% and 26% and 30% | % inhibition, collagen degeneration width: Mild ([2]; versus Vehicle): -2% | % inhibition, collagen degeneration width: Mild+ Minimal ([2]; versus Vehicle): 12% | % inhibition, collagen degeneration width: Minimal ([2]; versus Vehicle): 28% | % inhibition, collagen degeneration width: Moderate+ Mild+ Minimal ([2]; versus Vehicle): 12% | % inhibition, collagen degeneration width: Normal ([2]; versus Vehicle): -6% | % inhibition, collagen degeneration width: Severe+ Marked+ Moderate ([2]; versus Vehicle): 21% | % inhibition, collagen degeneration width: Severe+ Marked+ Moderate+ Mild ([2]; versus Vehicle): 1% | % inhibition, collagen degeneration width: Total ([2]; versus Vehicle): 12% | Cartilage Area: % Any Matrix Area ([3]; group Mean): 96% | Cartilage Area: % Viable Area ([3]; group Mean): 88% | Cartilage Area: % Any Matrix Area [3, 7]: 100% | Cartilage Area: % Viable Area [3, 7]: 100% | Percent Inhibition, % Any Matrix Area ([3]; versus Vehicle): -11% | Percent Inhibition, % Viable Area ([3]; versus Vehicle): 8%
